Source: paper PMC1458514 (Nucleic Acids Research, 2006)

Tests used:
Oligoribonuclease (Orn) = molecular target: T1, Oligoribonuclease (Orn) (Escherichia coli, UniProt P0A784); assay: Cy5-RNA 5mer degradation assay; assay type: biochemical
T1 sequence (P0A784 2-181): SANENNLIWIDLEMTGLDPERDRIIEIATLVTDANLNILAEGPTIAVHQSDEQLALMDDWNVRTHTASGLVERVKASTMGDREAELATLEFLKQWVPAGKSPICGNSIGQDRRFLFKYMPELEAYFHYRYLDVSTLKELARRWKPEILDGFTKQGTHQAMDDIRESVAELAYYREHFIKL

[1] = molecular target: nucleoside diphosphate kinase (NDK A) (Homo sapiens, UniProt P15531); assay: pAp-agarose affinity chromatography of HeLa extract, LC-MS/MS; assay type: cell-based
[2] = molecular target: T2, small fragment nuclease (Sfn) (Homo sapiens, UniProt Q9Y3B8); assay: Cy5-RNA 5mer degradation assay; assay type: biochemical
T2 sequence (Q9Y3B8 26-237): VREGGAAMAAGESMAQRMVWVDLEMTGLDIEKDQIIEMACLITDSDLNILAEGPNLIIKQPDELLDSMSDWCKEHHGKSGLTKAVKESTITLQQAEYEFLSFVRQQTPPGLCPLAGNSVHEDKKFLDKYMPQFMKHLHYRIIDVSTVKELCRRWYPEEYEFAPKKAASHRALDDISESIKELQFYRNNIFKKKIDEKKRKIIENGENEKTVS

Sequence of nucleoside diphosphate kinase (NDK A) (P15531 2-152): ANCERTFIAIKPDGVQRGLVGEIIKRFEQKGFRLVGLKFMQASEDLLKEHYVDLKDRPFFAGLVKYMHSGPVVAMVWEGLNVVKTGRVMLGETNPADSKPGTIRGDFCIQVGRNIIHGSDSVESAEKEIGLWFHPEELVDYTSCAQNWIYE

Nc1ncnc2c1ncn2[C@@H]1O[C@H](COP(=O)(O)O)[C@@H](OP(=O)(O)O)[C@H]1O [pAp]
Cy5-RNA 5mer degradation assay (gel) with purified Orn; also pAp-agarose affinit (Oligoribonuclease (Orn)): ~ 20 µM
pAp-agarose affinity chromatography of HeLa extract, LC-MS/MS [1]: The second human enzyme we found to bind to pAp is NDK.
Cy5-RNA 5mer degradation assay (gel) with purified Sfn; also pAp-agarose capture [2]: ~ 20 µM
